Measurements: US20100120700A1, “METHODS AND COMPOSITIONS FOR TREATING CERVICAL CANCER” (priority 2000, published 2010)
Where “and” joins values, the source holds several entries; their conditions need not be identical. Equal values may be shown once.

Tests used:
Experiment in all cases: G assay PDZ-PL binding
PSD95 domain 1 = target: T1, PSD95 domain 1 (Homo sapiens, UniProt P78352); settings: peptide 10 uM, protein 5
T1 construct: made in house; host or cells: E. coli (DH5alpha, BL21 or JM109), vector pGEX-3X
Outline: (§1)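 Plate ELISA: anti-GST antibody coat, BSA block, then GST/PDZ fusion (GST alone as negative control). Biotinylated PL peptide 20 uM (10 uM in G′ variant) added, 10 min 4 °C plus 20 min 25 °C; streptavidin-HRP, TMB, absorbance 450 nm.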

TIP1 domain 1 = target: T2, TIP1 domain 1 (Homo sapiens, UniProt O14907); settings: vs GST only well, peptide 10 uM, protein 5
T2 construct: made in house; host or cells: E. coli (DH5alpha, BL21 or JM109)
Outline: as §1

[1] = target: T3, HEMBA 1003117 #226.2 domain 1 (Homo sapiens, UniProt Q96JH8); settings: peptide 10 uM, protein 5
T3 construct: made in house; host or cells: E. coli (DH5alpha, BL21 or JM109)
Outline: as §1

Magi2 domain 1 = target: T4, Magi2 domain 1 (Homo sapiens, UniProt Q86UL8); settings: vs GST only well, peptide 10 uM, protein 5
T4 construct: made in house; host or cells: E. coli (DH5alpha, BL21 or JM109)
Outline: as §1

KIAA0561 domain 1 = target: T5, KIAA0561 domain 1 (Homo sapiens, UniProt O60307); settings: peptide 10 uM, protein 5
T5 construct: made in house; host or cells: E. coli (DH5alpha, BL21 or JM109)
Outline: as §1

KIAA0147 domain 3 = target: T6, KIAA0147 domain 3 (Homo sapiens, UniProt Q14160); settings: A450 nm, peptide 10 uM, protein 5
T6 construct: made in house; host or cells: E. coli (DH5alpha, BL21 or JM109)
Outline: as §1

CASK domain 1 = target: T7, CASK domain 1 (Homo sapiens, UniProt O14936); settings: peptide 10 uM, protein 5
T7 construct: made in house; host or cells: E. coli (DH5alpha or BL-21)
Outline: as §1

KIAA0545 domain 1 = target: T8, KIAA0545 domain 1 (Homo sapiens, UniProt O60292); settings: peptide 10 uM, protein 5
T8 construct: made in house; host or cells: E. coli (DH5alpha or BL-21)
Outline: as §1

TAX IP 2 domain 1 = target: T9, TAX IP 2 domain 1 (Homo sapiens, UniProt O14908); settings: peptide 10 uM, protein 5
T9 construct: made in house; host or cells: E. coli (DH5alpha, BL21 or JM109)
Outline: as §1

NSP #42.5 domain 1 = target: T10, NSP #42.5 domain 1 (Homo sapiens, UniProt Q92743); settings: peptide 10 uM, protein 5
T10 construct: made in house; host or cells: E. coli (DH5alpha or BL-21)
Outline: as §1

FLJ11215 domain 1 = target: T11, FLJ11215 domain 1 (Homo sapiens, UniProt Q9NUP9); settings: peptide 10 uM, protein 5
T11 construct: made in house; host or cells: E. coli (DH5alpha, BL21 or JM109), vector pGEX-3X
Outline: as §1

GTPase domain 1 = target: T12, GTPase domain 1 (Homo sapiens, UniProt Q96FS4); settings: peptide 10 uM, protein 5
T12 construct: made in house; host or cells: E. coli (DH5alpha, BL21 or JM109)
Outline: as §1

MAGI 1 domain 2 = target: T13, MAGI 1 domain 2 (Homo sapiens, UniProt Q96QZ7)
T13 construct: made in house; host or cells: E. coli (DH5alpha, BL21 or JM109)
Outline: as §1

MAGI 1 domain 6 = target: T14, MAGI 1 domain 6 (Homo sapiens, UniProt Q96QZ7); settings: peptide 10 uM, protein 5
T14 construct: made in house; host or cells: E. coli (DH5alpha, BL21 or JM109), vector pGEX-3X
Outline: as §1

T3 sequence (Q96JH8 969-1068): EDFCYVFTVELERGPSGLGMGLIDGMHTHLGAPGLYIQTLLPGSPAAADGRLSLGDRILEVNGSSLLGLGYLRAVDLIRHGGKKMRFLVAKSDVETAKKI
T13 sequence (Q96QZ7 463-566): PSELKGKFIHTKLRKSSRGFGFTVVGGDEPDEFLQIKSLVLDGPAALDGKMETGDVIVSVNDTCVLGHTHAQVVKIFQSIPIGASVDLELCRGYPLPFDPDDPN
T11 sequence (Q9NUP9 86-182): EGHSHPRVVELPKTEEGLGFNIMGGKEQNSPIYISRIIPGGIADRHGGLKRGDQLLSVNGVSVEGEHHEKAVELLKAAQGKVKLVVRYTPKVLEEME
T9 sequence (O14908 131-216): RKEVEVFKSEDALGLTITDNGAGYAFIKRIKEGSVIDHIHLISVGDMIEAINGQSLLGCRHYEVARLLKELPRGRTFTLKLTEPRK
T12 sequence (Q96FS4 680-767): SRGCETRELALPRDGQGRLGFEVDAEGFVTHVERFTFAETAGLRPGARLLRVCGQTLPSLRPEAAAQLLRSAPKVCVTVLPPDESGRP
T14 sequence (Q96QZ7 1143-1233): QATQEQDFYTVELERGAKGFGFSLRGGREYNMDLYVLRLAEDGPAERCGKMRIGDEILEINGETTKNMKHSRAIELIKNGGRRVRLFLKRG
T4 sequence (Q86UL8 408-511): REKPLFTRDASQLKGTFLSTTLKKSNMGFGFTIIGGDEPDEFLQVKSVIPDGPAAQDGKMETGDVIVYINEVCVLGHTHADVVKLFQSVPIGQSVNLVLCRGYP
T8 sequence (O60292 955-1050): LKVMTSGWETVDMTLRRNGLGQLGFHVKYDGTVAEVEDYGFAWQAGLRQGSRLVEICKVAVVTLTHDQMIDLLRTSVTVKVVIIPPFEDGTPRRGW
T10 sequence (Q92743 359-473): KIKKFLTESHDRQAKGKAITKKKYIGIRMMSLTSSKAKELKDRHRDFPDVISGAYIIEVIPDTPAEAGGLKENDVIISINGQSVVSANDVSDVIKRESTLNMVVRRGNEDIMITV
T1 sequence (P78352 62-156): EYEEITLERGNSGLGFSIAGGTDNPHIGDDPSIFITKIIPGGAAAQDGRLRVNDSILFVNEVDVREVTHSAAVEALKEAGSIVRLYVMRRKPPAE
T7 sequence (O14936 486-575): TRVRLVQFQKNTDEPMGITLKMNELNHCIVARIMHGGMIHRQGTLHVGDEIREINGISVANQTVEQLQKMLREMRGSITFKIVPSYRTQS
T6 sequence (Q14160 with tags, fused parts or gaps): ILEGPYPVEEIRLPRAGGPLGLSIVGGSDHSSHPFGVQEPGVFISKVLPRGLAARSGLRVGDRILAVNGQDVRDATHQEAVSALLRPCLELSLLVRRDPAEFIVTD
T5 sequence (O60307 with tags, fused parts or gaps): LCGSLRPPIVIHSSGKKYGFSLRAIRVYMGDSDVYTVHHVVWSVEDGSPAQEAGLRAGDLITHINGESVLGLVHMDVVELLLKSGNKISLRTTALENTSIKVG
T2 sequence (O14907 14-116): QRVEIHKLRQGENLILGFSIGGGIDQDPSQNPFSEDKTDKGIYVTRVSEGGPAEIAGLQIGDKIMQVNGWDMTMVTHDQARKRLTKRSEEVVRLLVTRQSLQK

Substance: 20 mer peptide corresponding to the C-terminus of HPV16 E6 (PDZ ligand), biotinylated in binding assays; ends SSRTRRETQL (SEQ ID NO: 13) [HPV E6 #16]
- Ave OD (PSD95 domain 1; A450 nm): 0.942
- OD S/N (PSD95 domain 1; vs GST only well): 4.81
- OD S/N (TIP1 domain 1): 8.24 and 5.67
- Ave OD ([1]; A450 nm): 0.36 and 0.477
- OD S/N ([1]; vs GST only well): 1.66 and 2.27
- OD S/N (Magi2 domain 1): 11.59 and 7.23
- Ave OD (KIAA0561 domain 1; A450 nm): 0.3475
- OD S/N (KIAA0561 domain 1; vs GST only well): 2.44
- Ave OD (KIAA0147 domain 3): 2.0785 and 1.072
- Ave OD (CASK domain 1; A450 nm): 0.36
- OD S/N (CASK domain 1; vs GST only well): 1.15
- Ave OD (KIAA0545 domain 1; A450 nm): 0.4395
- OD S/N (KIAA0545 domain 1; vs GST only well): 3.96
- Ave OD (TAX IP 2 domain 1; A450 nm): 0.5085 and 0.478
- OD S/N (TAX IP 2 domain 1; vs GST only well): 2.37 and 2.48
- Ave OD (NSP #42.5 domain 1; A450 nm): 0.4165
- OD S/N (NSP #42.5 domain 1; vs GST only well): 1.95
- Ave OD (FLJ11215 domain 1; A450 nm): 0.449 and 0.666
- OD S/N (FLJ11215 domain 1; vs GST only well): 2.77 and 2.74
- Ave OD (GTPase domain 1; A450 nm): 0.3505
- OD S/N (GTPase domain 1; vs GST only well): 1.12
- Ave OD (MAGI 1 domain 2; A450 nm, MAGI 1 domain 2, peptide 10 uM, protein 5): 4.1125
- binding to MAGI-1 second PDZ domain (qualitative) (MAGI 1 domain 2; G assay / Matrix TM assay, called MAGI 1 domain 1 in b521 (nomenclature b497)): bound with the highest relative affinity
- OD S/N (MAGI 1 domain 2; vs GST only well, MAGI 1 domain 2, peptide 10 uM, protein 5): 19.54
- Ave OD (MAGI 1 domain 6; A450 nm): 0.71
- OD S/N (MAGI 1 domain 6; vs GST only well): 2.47
